Source: patent US20050153856A1, “Methods and compositions for killing spores” (priority 2002, published 2005)

System: Bacillus thuringiensis spores
Test: Killing of spores (Example 2): microtiter serial 10-fold dilution, growth read with MTT
Format: cell-based
Details: wells 7-8: KI only, no laccase, no methylsyringate, 1 hour 24 degrees Celsius pH 6.5
Method: Spore suspension was pipetted into the wells in row A of a microtiter plate. The reaction was initiated by the addition of laccase solution.
The microtiter plate was incubated at room temperature (24 degrees Celsius) for 1 hour.
In the tables growth is indicated with a “+” symbol.

Measured: growth

[I-].[K+] [KI, Potassium iodide]
+: 10-fold dilution step 4 | listed as B, 10-fold dilution step 1 | listed as C, 10-fold dilution step 2 | listed as D, 10-fold dilution step 3 | listed as F, 10-fold dilution step 5 | listed as G, 10-fold dilution step 6
